The record followed here is patent US7820701B2, “Amorphous lercanidipine hydrochloride and uses thereof” (Recordati Ireland Limited, priority 2005, dated 2010).

Where a name gives a salt, the structure may show the parent alone.

This data set is described as follows: Aqueous solubility of amorphous vs crystalline lercanidipine hydrochloride. Format: physicochemical. Conditions: water, stirring at 27-28° C. for 24 hr, filtered, HPLC. How it is done:
The aqueous solubility of amorphous lercanidipine hydrochloride, was compared to the solubility of crystalline lercanidipine hydrochloride. The solubility of the respective samples was determined by suspending 20-30 mg of sample test was in 10 mL water and stirring at 27-28° C. for 24 hr. The sample was then filtered through a PVDF filter (0.2 micron) and the solution diluted with acetonitrile and analyzed by HPLC.
For the compound `COC(=O)C1=C(C)NC(C)=C(C(=O)OC(C)(C)CN(C)CCC(c2ccccc2)c2ccccc2)C1c1cccc([N+](=O)[O-])c1` (stereo not drawn) [Amorphous lercanidipine HCl (Example 1), methyl 1,1,N-trimethyl-N-(3,3-diphenylpropyl)-2-aminoethyl 1,4-dihydro-2,6-dimethyl-4-(3-nitrophenyl)pyridine-3,5-dicarboxylate], the SOLUBILITY stood at 1.5 mg/L.
With `COC(=O)C1=C(C)NC(C)=C(C(=O)OC(C)(C)CN(C)CCC(c2ccccc2)c2ccccc2)C1c1cccc([N+](=O)[O-])c1` (stereo not drawn) [Amorphous lercanidipine HCl (Example 2), methyl 1,1,N-trimethyl-N-(3,3-diphenylpropyl)-2-aminoethyl 1,4-dihydro-2,6-dimethyl-4-(3-nitrophenyl)pyridine-3,5-dicarboxylate], the SOLUBILITY is listed as 1.5 mg/L.
`COC(=O)C1=C(C)NC(C)=C(C(=O)OC(C)(C)CN(C)CCC(c2ccccc2)c2ccccc2)C1c1cccc([N+](=O)[O-])c1` (stereo not drawn) [Crystalline lercanidipine HCl (Form I), methyl 1,1,N-trimethyl-N-(3,3-diphenylpropyl)-2-aminoethyl 1,4-dihydro-2,6-dimethyl-4-(3-nitrophenyl)pyridine-3,5-dicarboxylate, reference compound] gave an SOLUBILITY of 0.65 mg/L.
